Drawing on patent EP0887339A1, “Azulene derivatives and medicaments containing them” (BOEHRINGER MANNHEIM GMBH, priority 1997, dated 1998), this text covers IC50 for 11 molecules.

This assay concerns the target TNF-α. The assay can be described thus: Inhibition of TNFα in culture supernatant of LPS-stimulated peripheral human leukocytes, TNFα-specific enzyme immunoassay. The class given is cell-based. As to conditions: Periphere humane Leukozyten, LPS über 22 Std., Kulturüberstand. From the text:
[…] humane Leukozyten werden mit LPS über 22 Std. inkubiert. Der Kulturüberstand wird mit einem TNFα spezifischen Enzym-Immuno-Assay untersucht. Durch Vergleich der für die Messproben erhaltenen TNFα-Konzentrationen mit den ungehemmten Proben wird die prozentuale Hemmung fiir die einzelne Probe berechnet. Aus der […]. Der IC50-Wert läßt sich wie folgt ermitteln: v = v0 /(1 + [I] / IC50 ) [formula] • v = […]0 = […] ohne Inhibitor • [I] = […] IC50-Werte, der in den Beispielen beschriebenen Substanzen gegen TNF-α finden sich in der folgenden Tabelle:
As a reminder, the IC50 is the concentration that gives 50% inhibition. Low values mean inhibition by little substance, high ones a need for much substance. `CCOC(=O)c1c2ccc(CC(=O)O)ccc-2c(C(=O)O)c1N` [Beispiel 2, 2-Amino-6-carboxylmethyl-azulen-1,3-dicarbonsäuremonoethylester] registered an IC50 of 10.5 µM. Under `CC(C)(C)OC(=O)c1c2ccc(Br)ccc-2c(C(=O)OC(C)(C)C)c1N` [Beispiel 9, 2-Amino-6-bromo-azulen-1,3-dicarbonsäure-di-tert-butylester] stands 2.3 µM; under `CCOC(=O)c1c2ccc(CC(=O)NO)ccc-2c(C(=O)OCC)c1N` [Beispiel 3, 2-Amino-6-hydroxycarbamoylmethyl-azulen-1,3-dicarbonsäurediethylester], 0.001 µM; under `CC(=O)N(C(C)=O)c1c(C(=O)OC(C)(C)C)c2ccc(Br)ccc-2c1C(=O)OC(C)(C)C` [Beispiel 10, 2-Diacetylamino-6-bromo-azulen-1,3-dicarbonsäure-di-tert-butylester], 0.5 µM. `CCOC(=O)c1c2cccccc-2c(C(=O)OC(C)(C)C)c1N` [Beispiel 8, 2-Amino-azulen-1,3-dicarbonsäure-tert-butyl-ethylester] came in with an IC50 of 8 µM.

The molecule `CCOC(=O)c1c2ccc(C(C(=O)NC(N)=O)C(=O)OCC)ccc-2c(C(=O)OCC)c1N` (centres unmarked) [Beispiel 6, 2-Amino-6-(1-ethoxycarbonyl-2-oxo-2-ureido-ethyl)-azulen-1,3-dicarbonsäurediethylester] displayed an IC50 of 15 µM. Under `CCOC(=O)c1c2ccc(CC(=O)O)ccc-2c(C(=O)OCC)c1NC(C)=O` [Beispiel 4, 2-Acetylamino-6-carboxymethyl-azulen-1,3-dicarbonsäurediethylester] stands 4.1 µM; under `CC(=O)N(C(C)=O)c1c(C(=O)OC(C)(C)C)c2ccc(C(C(=O)OC(C)(C)C)C(=O)OC(C)(C)C)ccc-2c1C(=O)OC(C)(C)C` [Beispiel 11, 6-(Bis-tert-butoxycarbonyl-methyl)-2-diacetylamino-azulene-1,3-dicarbonsäure-di-tert-butylester], 4.2 µM. Under `CC(C)(C)OC(=O)c1c2cccccc-2c(C(=O)OC(C)(C)C)c1N` [Beispiel 7, 2-Amino-azulen-1,3-dicarbonsäure-di-tert-butylester] stands 2.8 µM; under `CCOC(=O)c1c2ccc(CC(=O)NO)ccc-2c(C(=O)OCC)c1NC(C)=O` [Beispiel 5, 2-Acetylamino-6-hydroxycarbamoylmethyl-azulen-1,3-dicarbonsäurediethylester], 0.02 µM. Under `CCOC(=O)c1c2ccc(CC(=O)O)ccc-2c(C(=O)OCC)c1N` [Beispiel 1, 2-Amino-6-carboxylmethyl-azulen-1,3-dicarbonsäurediethylester] stands 0.16 µM.
